Data set [1] addresses T1, human μ-opioid (OP3) receptor (Homo sapiens, UniProt P35372). In words: cell-based. On the set-up: Emax: dose or concentration left out as unconfirmed. Type of data set: cell-based.
Data set [2] addresses T1, human μ-opioid (OP3) receptor. In words: cell-based. Particulars: for Emax at 0.03 µM / Emax: U2OS; for Emax at 0.03 µM: read-out: Emax% (EC87: 30 nM) Antagonist Mode.
Another data set has as its target T2, human μ-opioid receptor (Homo sapiens, UniProt P35372).
T2 construct: purchased Perkin Elmer ES-542-M400UA; host or cells: CHO-K1 cells, stably transfected (membranes)
In words: biochemical. Type of data set: binding. Conditions: for binding to the μ-opioid receptor: tested concentrations 10^−5–10^−10 M.

Where [3] appears, read: CHO-K1; read-out: Emax% Agonist Mode.
The mark [4] stands for this setting: CHO-K1; read-out: Emax% Antagonist Mode.
Setting [5] is: read-out: Emax% (EC20: 1 nM) Antagonist Mode.
Setting [6] is: CHO-K1, read-out: Emax% Antagonist Mode.

Values joined by “and” are separate entries in the source; they are usually repeats but may differ in a detail not shown here. Equal values may be shown once. Read-outs that look alike come from different tables or passages of the source.

Usually Emax stands for the maximal effect, on the per cent scale that the assay sets. In general, melting point refers to the temperature, or range, at which the solid turns liquid. As usually defined, the Ki is a dissociation constant, usually derived from enzyme kinetics or from competition with a known ligand.

T1 sequence (P35372 whole entry): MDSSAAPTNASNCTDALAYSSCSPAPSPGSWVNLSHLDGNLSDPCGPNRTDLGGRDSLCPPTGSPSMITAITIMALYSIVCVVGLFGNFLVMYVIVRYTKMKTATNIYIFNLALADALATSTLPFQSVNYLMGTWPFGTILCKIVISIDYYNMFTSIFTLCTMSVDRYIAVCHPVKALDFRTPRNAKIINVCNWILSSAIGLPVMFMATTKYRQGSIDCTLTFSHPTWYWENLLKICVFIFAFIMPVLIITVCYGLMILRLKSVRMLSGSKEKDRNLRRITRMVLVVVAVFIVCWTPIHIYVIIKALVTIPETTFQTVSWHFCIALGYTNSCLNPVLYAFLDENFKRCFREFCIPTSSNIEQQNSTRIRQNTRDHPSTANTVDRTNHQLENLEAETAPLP
T2 sequence (P35372 whole entry): as above
Description for human μ-opioid receptor: The reaction was terminated by rapid filtration through GF/B filter mate presoaked with 0.5% polyethyleneimine for 30 min. […] Data were fitted to a one-site curve-fitting equation with Prism 6 (GraphPad Software), and Ki values were estimated from the Cheng–Prusoff equation.

For `O=C1N=C2N(CCN2c2ccccc2)C1=O` [1a], the Emax in data set [1] (setting [3]) is 15%; in data set [1] (setting [4]), 6%; in data set [2] (setting [5]), 92%; in data set [2] (read-out: Emax% Agonist Mode), 8%. The Emax at 0.0046 µM in data set [1] (setting [4]) stood at 4%. Further, the Emax at 0.03 µM in data set [1] (setting [4]) is 9%; in data set [2] it was 22%. In addition, the “binding to the μ-opioid receptor” value on human μ-opioid receptor was “No binding”.
For the molecule `Cc1cccc(N2CCN3C(=O)C(=O)N=C32)c1` [1b], the melting point fell in the range of 220 to 223 °C. Also, the “Emax% Antagonist Mode” value in data set [1] stood at 5%. The Emax in data set [1] (setting [3]) was 13%. Also, in data set [1] (setting [4]), the Emax was 10% and the Emax at 0.0046 µM came out at 6%. Also, the Emax at 0.03 µM in data set [2] stood at 12%. The Emax in data set [2] (setting [5]) came to 94%. Besides, the Emax in data set [2] (read-out: Emax% Agonist Mode) came out at 13%. Further, the “binding to the μ-opioid receptor” value on human μ-opioid receptor is given as “No binding”.
The molecule `Cc1ccc(N2CCN3C(=O)C(=O)N=C32)cc1` [1c, 1-(4-methylphenyl)-2,3-dihydro-1H-imidazo[1,2-a]imidazole-5,6-dione] yielded a melting point of 236 to 238 °C. Further, in data set [1] (setting [3]), the Emax was determined as 13%. Further, in data set [1] (setting [4]), the Emax is 35% and the Emax at 0.0046 µM is 4%. Further, the “pharmacological classification in words” value in data set [1] (from cAMP functional data (with binding data for the modulator conclusion)) was “weak antagonist properties”. In addition, the “pharmacological classification in words” value in data set [1] (from cAMP functional data (with binding data for the modulator conclusion); listed as 1-(4-methylphenyl)-2,3-dihydro-1H-imidazo[1,2-a]imidazole-5,6-dione) is “negative allosteric modulator”. This molecule also had a Kb in data set [1] (pKb Range Antagonist Mode) of 0.661 nM. The Kb in data set [1] (read-out: pKb Range Antagonist Mode (converted)) is 8.91 nM. In addition, the Emax at 0.03 µM in data set [2] was found to be 12%. Besides, the Emax in data set [2] (setting [5]) was 97%. For the same molecule, the Emax in data set [2] (read-out: Emax% Agonist Mode) came to 15%. Moreover, the “binding to the μ-opioid receptor” value at human μ-opioid receptor is listed as “No binding”.
Regarding `O=C1N=C2N(CCN2c2cccc(Cl)c2)C1=O` [1d], the melting point is 279 to 280 °C. The Emax in data set [1] (setting [3]) was found to be 13%. In data set [1] (setting [4]), the Emax stood at 22%, the Emax at 0.0046 µM amounted to 4% and the Emax at 0.03 µM amounted to 5%. In addition, in data set [2], the maximum response (Emax) at 0.03 µM turned out to be 9%. In addition, in data set [2] (setting [5]), the Emax is 92%. In addition, in data set [2] (read-out: Emax% Agonist Mode), the Emax was 15%. Further, at human μ-opioid receptor, the “binding to the μ-opioid receptor” value is “No binding”.
`O=C1N=C2N(CCN2c2ccc(Cl)cc2)C1=O` [1e]: the “Emax% Antagonist Mode” value in data set [1] is reported as 3%. The Emax came out at 13% in data set [1] (setting [3]), 8% in data set [1] (setting [4]), 89% in data set [2] (setting [5]) and 14% in data set [2] (read-out: Emax% Agonist Mode). Besides, the Emax at 0.0046 µM in data set [1] (setting [4]) worked out at 12%. Besides, the Emax at 0.03 µM in data set [1] (setting [4]) was determined as 5%; in data set [2], 19%. Besides, at human μ-opioid receptor, the “binding to the μ-opioid receptor” value is reported as “No binding”.
As to `C[C@@H](O)[C@H](NC(=O)[C@H]1NC(=O)[C@H]([C@@H](C)O)NC(=O)[C@H](CCCNC(=N)N)NC(=O)[C@@H](Cc2c[nH]c3ccccc23)NC(=O)[C@H](Cc2ccc(O)cc2)NC(=O)[C@@H](NC(=O)[C@H](N)Cc2ccccc2)CSSC1(C)C)C(N)=O` [CTAP, {d-Phe}-Cys-Tyr-{d-Trp}-Arg-Thr-{Pen}-Thr-NH2 (disulfide bridge: Cys2-Pen7), reference compound], the Emax in data set [1] (CHO-K1, read-out: Emax% Agonist Mode) came out at 12%. Further, in data set [1] (setting [6]), the Emax came to 100%, the Emax at 0.0046 µM is 100% and the Emax at 0.03 µM is 116%. This molecule also gave a Ki on human μ-opioid receptor of 4.9 nM.
Take `C[C@@H](NC(=O)[C@@H](N)Cc1ccc(O)cc1)C(=O)NCC(=O)N(C)[C@@H](Cc1ccccc1)C(=O)NCCO` [DAMGO, (2S)-2-[[2-[[(2R)-2-[[(2S)-2-Amino-3-(4-hydroxyphenyl)propanoyl]-amino]-propanoyl]amino]acetyl]-methylamino]-N-(2-hydroxyethyl)-3-phenylpropanamide, reference compound]: in data set [1], the “EC20 of DAMGO” value stood at 1 nM, the “EC80 of DAMGO” value was 18 nM, the “EC87 of DAMGO” value is given as 30 nM and the “Emax% Antagonist Mode” value was found to be 2%. For the same molecule, in data set [1] (setting [6]), the Emax turned out to be 0% and the Emax at 0.0046 µM stood at 0%.
As to `COC(=O)/C=C/C(=O)N[C@@H]1CC[C@@]2(O)[C@H]3Cc4ccc(O)c5c4[C@@]2(CCN3CC2CC2)[C@H]1O5` [ß-FUNALTREXAMINE, beta-funaltrexamine, reference compound], in data set [1], the “Emax% Agonist Mode” value came out at 17%; the “Emax% Antagonist Mode” value was 66% and 40% and 46% and 42%. Further, in data set [2], the “Emax% (EC20: 1 nM) Antagonist Mode” value turned out to be 122% and the “Emax% (EC87: 30 nM) Antagonist Mode” value came to 127%. In data set [2] (β-arrestin recruitment, fraction of effect of DAMGO), the “Emax% Agonist Mode” value amounted to 10%. The “pKi Range” value on human μ-opioid receptor is recorded as 9.13 (9.10–9.15).

These data come from publication PMC9100072, “Modulation of the MOP Receptor (μ Opioid Receptor) by Imidazo[1,2-a]imidazole-5,6-Diones: In Search of the Elucidation of the Mechanism of Action” (Molecules, 2022).
